Data on 18 compounds can be found in ChEMBL document CHEMBL3272069, “Inhibition of acetylcholinesterase by thiamine. A structure-function study” (J Med Chem, 1977).

Active and inactive are the calls of the source. No cut-off for these calls is given here.

Data set [1] deals with T1, Acetylcholinesterase (Electrophorus electricus, UniProt O42275). In words: (§1) Competitive inhibition of electric eel AChE using acetylthiocholine chloride as substrate at pH 7 by Michaelis-Menten plot analysis.
In data set [2] the target is T1, Acetylcholinesterase. In words: (§2) Noncompetitive inhibition of electric eel AChE using acetylthiocholine chloride as substrate at pH 7 by Michaelis-Menten plot analysis.
Data set [3] addresses T1, Acetylcholinesterase. In words: (§3) Noncompetitive inhibition of electric eel AChE using acetylthiocholine chloride as substrate at pH 8.25 by Michaelis-Menten plot analysis.
The target in data set [4] is T1, Acetylcholinesterase. In words: (§4) Competitive inhibition of electric eel AChE using acetylthiocholine chloride as substrate at pH 8.25 by Michaelis-Menten plot analysis.
Data set [5] can be described thus: Dissociation constant, pKa of the compound by potentiometric titration analysis. It is filed as physicochemical.
Data set [6] deals with Acetylcholinesterase (Electrophorus electricus) (UniProt O42275). Described as §1.
For data set [7] the target is unchanged. The description is as §2.
Data set [8] has the same target. The description is as §3.
Data set [9] shares this target. Described as §4.

T1 sequence (O42275 whole entry): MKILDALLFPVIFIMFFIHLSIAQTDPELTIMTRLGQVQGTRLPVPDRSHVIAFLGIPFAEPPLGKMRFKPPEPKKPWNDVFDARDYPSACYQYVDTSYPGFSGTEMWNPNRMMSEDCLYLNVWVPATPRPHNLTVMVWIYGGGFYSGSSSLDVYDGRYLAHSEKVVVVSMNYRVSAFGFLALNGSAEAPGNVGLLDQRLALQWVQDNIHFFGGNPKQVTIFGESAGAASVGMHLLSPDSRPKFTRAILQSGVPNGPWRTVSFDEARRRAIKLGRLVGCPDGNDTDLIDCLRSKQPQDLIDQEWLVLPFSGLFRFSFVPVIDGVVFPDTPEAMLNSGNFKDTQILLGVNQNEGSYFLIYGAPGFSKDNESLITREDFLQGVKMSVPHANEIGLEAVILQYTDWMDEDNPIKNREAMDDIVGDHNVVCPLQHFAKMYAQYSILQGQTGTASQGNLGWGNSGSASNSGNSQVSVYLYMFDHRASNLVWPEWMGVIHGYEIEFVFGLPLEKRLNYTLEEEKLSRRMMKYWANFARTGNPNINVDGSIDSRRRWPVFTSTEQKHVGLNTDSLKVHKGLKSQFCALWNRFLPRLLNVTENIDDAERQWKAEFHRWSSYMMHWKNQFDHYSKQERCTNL
Sequence of Acetylcholinesterase (Electrophorus electricus) (O42275 24-633 limits assumed): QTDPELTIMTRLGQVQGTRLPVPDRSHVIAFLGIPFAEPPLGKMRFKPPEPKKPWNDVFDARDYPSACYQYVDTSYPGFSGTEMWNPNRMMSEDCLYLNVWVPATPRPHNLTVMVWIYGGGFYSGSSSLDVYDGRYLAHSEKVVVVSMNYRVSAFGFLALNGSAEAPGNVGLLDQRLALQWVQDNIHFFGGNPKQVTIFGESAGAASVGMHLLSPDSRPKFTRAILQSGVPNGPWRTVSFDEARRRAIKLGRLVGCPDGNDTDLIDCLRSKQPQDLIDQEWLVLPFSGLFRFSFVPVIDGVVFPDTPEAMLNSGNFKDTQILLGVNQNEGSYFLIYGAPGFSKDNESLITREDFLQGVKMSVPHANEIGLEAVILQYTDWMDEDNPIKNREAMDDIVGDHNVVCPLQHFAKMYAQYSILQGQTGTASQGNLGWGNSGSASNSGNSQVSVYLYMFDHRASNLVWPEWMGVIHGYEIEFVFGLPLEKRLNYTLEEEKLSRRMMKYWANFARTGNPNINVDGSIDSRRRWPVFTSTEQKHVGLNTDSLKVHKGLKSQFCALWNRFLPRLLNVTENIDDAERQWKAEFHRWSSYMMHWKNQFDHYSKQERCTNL

For the compound `Cc1ncc(CN2CSC(CCO)C2C)c(N)n1` (stereo not drawn), the Ki on Acetylcholinesterase [1] amounted to 188 µM; on Acetylcholinesterase [2] it was 624 µM; on Acetylcholinesterase [3], 839 µM; at Acetylcholinesterase [4], 496 µM. Moreover, in data set [5], the pKa amounted to 7.6.
For the compound `Nc1ccncn1`, the inhibition constant Ki is 5020 µM on Acetylcholinesterase [1], 8850 µM at Acetylcholinesterase [2], 4240 µM at Acetylcholinesterase [3] and 9720 µM at Acetylcholinesterase [4]. The same compound yielded a pKa in data set [5] of 5.71.
With `Cc1ncc(CN2CSC3CCOC32C)c(N)n1` (stereo not drawn), the Ki at Acetylcholinesterase [3] was determined as 237 µM; on Acetylcholinesterase [4], 541 µM.
Turning to `CCc1scnc1C`, the Ki at Acetylcholinesterase [1] was 468 µM; at Acetylcholinesterase [2], 1950 µM; on Acetylcholinesterase [3], 51100 µM; at Acetylcholinesterase [4], 562 µM.
On to `Cc1c(CCO)sc[n+]1C`, for which the inhibition constant (Ki) on Acetylcholinesterase [1] is 148 µM; at Acetylcholinesterase [2], 1250 µM; at Acetylcholinesterase [3] it was 18800 µM; at Acetylcholinesterase [4], 75.6 µM.
As for `Cc1ncc(C)c(N)n1`, the Ki turned out to be 111 µM on Acetylcholinesterase [1], 260 µM on Acetylcholinesterase [2], 551 µM on Acetylcholinesterase [3] and 163 µM at Acetylcholinesterase [4]. The compound also gave a pKa in data set [5] of 6.5.
Turning to `Cc1ncc(C[n+]2csc(CCOP(=O)(O)O)c2C)c(N)n1` [MONOPHOSPHOTHIAMINE], the Ki at Acetylcholinesterase [1] came out at 3010 µM; on Acetylcholinesterase [2], 9270 µM; at Acetylcholinesterase [3], 5930 µM; on Acetylcholinesterase [4] it was 11300 µM.
For `Cc1ncc(C[n+]2csc(CCO[P@](=O)(O)OP(=O)(O)O)c2C)c(N)n1`, in that order: 14600 µM, 6740 µM, 58400 µM and 14200 µM.
On to `c1cscn1`, for which the inhibition result in data set [6], in [7], in data set [8] and in data set [9] was “inactive” throughout.
`Cc1ncc(C[n+]2csc(CCOP(=O)(O)OP(=O)(O)OP(=O)(O)O)c2C)c(N)n1`: the Ki was 5200 µM on Acetylcholinesterase [1], 881 µM at Acetylcholinesterase [2], 1000 µM at Acetylcholinesterase [3] and 10000 µM on Acetylcholinesterase [4].
As for `C[n+]1ccsc1`, the Ki on Acetylcholinesterase [1] was found to be 317 µM; on Acetylcholinesterase [2] it was 939 µM; on Acetylcholinesterase [3] it was 2.95 µM; on Acetylcholinesterase [4], 286 µM.
For `c1cncnc1`, the inhibition entry in data set [6], in [7], in data set [8] and in data set [9] was “inactive” throughout.
With `Cc1csc[n+]1C`, the Ki at Acetylcholinesterase [1] was 67.9 µM; at Acetylcholinesterase [2] it was 9.8 µM; on Acetylcholinesterase [3] it was 445 µM; at Acetylcholinesterase [4] it was 54.8 µM.
As for `CCc1sc[n+](C)c1C`, the Ki at Acetylcholinesterase [1] worked out at 11.1 µM; on Acetylcholinesterase [2] it was 5.43 µM; at Acetylcholinesterase [3], 0.935 µM; at Acetylcholinesterase [4], 8.34 µM.
For `Cc1ncc(C[n+]2csc(CCO)c2C)c(N)n1` [THIAMINE], the Ki was 432 µM on Acetylcholinesterase [1], 565 µM on Acetylcholinesterase [2], 333 µM at Acetylcholinesterase [3] and 392 µM at Acetylcholinesterase [4].
For `Cc1ncsc1CCO` the same measures were 7990 µM, 1370 µM, 706 µM and 8610 µM.
In the case of `Cc1ncc(CS(=O)(=O)O)c(N)n1`, the inhibition entry in data set [6], in data set [7], in [8] and in data set [9] was “inactive” in each case.
With `Cc1cscn1`, the inhibition constant Ki on Acetylcholinesterase [1] was found to be 5420 µM; at Acetylcholinesterase [2], 3250 µM; on Acetylcholinesterase [3] it was 109000 µM; on Acetylcholinesterase [4], 6070 µM.

In general, Ki refers to a dissociation constant, usually derived from enzyme kinetics or from competition with a known ligand. Lower therefore signals higher affinity. For orientation: pKa means the pH at which an ionisable group is half protonated. Lower therefore signals a group that gives up its proton readily.
